Assay results from patent US11339191B2, “Stapled peptides and uses thereof” (Universite de Montpellier, priority 2016, dated 2022).
Bridge positions count the residues as written; N and C are the ends. Square brackets hold non-standard residues; d marks the D form. S5 = C=CCCC[C@](C)(N)C(=O)O; Nle = CCCC[C@H](N)C(=O)O

Legend:
Format in all cases: cell-based, human
[1] = tested on: CHOP, BIP and GRP94 genes; assay: Tunicamycin-induced ER stress in THP-1 cells, expression of the CHOP, BIP and GRP94 genes by RT-qPCR; details: THP-1, tunicamycin 0.1 μg/ml
Procedure: To assess the specificity of recognition of stapled peptides IRAK2, we induced ER stress in human monocytic cell line THP-1 by treatment with tunicamycin (0.1 μg/ml) for 8 h and 24 h.
THP-1 cells were cultured (300 000 cells/well) in RPMI 1640 supplemented with 10% fetal calf serum, 1% penicillin/streptomycin and L-glutamine. The cells were treated with 0.1 μg/ml tunicamycin for 30 min, 8 H or 24 H. The peptide was solubilized in 4% DMSO and used at concentrations ranging from 1 to 20 μM. Total cell RNAs were extracted with the miRNeasy kit (Qiagen), the expression levels of the genes were measured by RT-qPCR with Taqman assays (Lifetechnology) technology.
We have shown that IRAK2 is the main kinase expressed at 8 h, compared to IRAK1 (FIG. 3A). Measurement of the expression of the CHOP, BIP and GRP94 genes validated the activation of the ER stress at 8H as expected according to literature (FIG. 3B). In this study the peptides IRAK2 Li, IRAKM Li, IRAK2 S1, IRAK2 S2 (Li for linear peptide and S1 and S2 for stapled peptide) were tested. […] This inhibition was specific since, stapled peptide concentration of 20 μM, control stapled peptide (Mock S) has no effect (FIG. 3D).

IL-1β [2] = assay: PMA-induced macrophage differentiation of THP-1 monocytes, IL-1β RNA (RT-qPCR) and secretion (ELISA); details: THP-1, PMA 0.1 μg/ml 48 h, peptide 20 μM
Procedure: (§1) We stimulated the THP-1 monocytes with 0.1 μg/ml PMA for 48 h to induce differentiation into macrophages, and treated with 20 μM stapled peptide (IRAK2-S1 or Mock-S).
(§2) THP1 cells were cultured (300,000 cells/well) in RPMI 1640 supplemented with 10% fetal calf serum, 1% penicillin/streptomycin and L-glutamine. The cells were treated with 0.1 μg/ml of PMA for 48 h. The peptides were solubilized in 4% DMSO and used at 20 μM. The peptides are added together with the PMA. Total RNA of the cells were extracted by the miRNeasy kit (Qiagen), the level of expression of IL-1β was measured by RT-qPCR technology by Taqman assays (lifetechnology)
(§3) After extraction of the RNAs, we quantified by RT-qPCR the level of expression of the RNA of IL-1β (FIG. 4A). Using ELISA method, the cytokine secretion was measured in the supernatant of the treated THP-1 (FIG. 4B). The IRAK2-S1 peptide was able to block the expression and production of IL-1β at 20 μM. At this concentration, the peptide appears to have no effect on viability and morphology of the cells.

THP-1 cells = assay: Viability and morphology of PMA-treated THP-1 cells with peptide; details: THP-1, peptide 20 μM
Procedure: as §1, §2, §3

TNFα = assay: LPS-stimulated THP-1 monocytes, TNFα in culture supernatant by ELISA
Procedure: (§4) THP1 cells were cultured (300 000 cells/well) in RPMI 1640 supplemented with 10% fetal calf serum, 1% penicillin/streptomycin and L-glutamine. The cells were treated with 0.1 μg/ml LPS for 6 h for TNFα, and 24 h for IL-6 and IL-1β. The peptides were solubilized in 4% DMSO and used at 5 and 20 μM. The peptides were added at the same time as the LPS. The determination of the cytokines in the culture supernatants was carried out with the specific ELISA kits (eBioscience).
(§5) For all conditions tested, THP-1 monocytes were cultured (300 000 cells/well) in RPMI with 10% fetal calf serum; 1% penicillin/streptomycin and L-glutamine. THP-1 were treated with 0.1 μg/mL of LPS for 24 hours, stapled-peptides IRAK2-S1 et IRAKM-S1 were used at 1 to 20 μM and added at the same time for condition A, 6 hours before LPS for condition B and 6 hours after LPS for condition C. The quantification of cytokine in the culture supernatants was carried out with specific IL-6 and TNFα ELISA (eBioscience).
(§6) For all conditions tested, THP-1 monocytes were cultured (300 000 cells/well) in RPMI with 10% fetal calf serum; 1% penicillin/streptomycin and L-glutamine. THP-1 were treated with 0.1 μg/mL of LPS for 24 hours, stapled-peptides IRAK2-S1, IRAK2-JMV6649, IRAKM-S1 and IRAKM-JMV6650 were used at 10 to 20 μM and added at the same time for «Simultaneous» condition, 6 hours before LPS for «preventive» condition and 6 hours after LPS for «curative» condition. Using ELISA (eBioscience), IL-6 and TNFα quantification was carried out in monocyte culture supernatants.

IL-6 = assay: LPS-stimulated THP-1 monocytes, IL-6 in culture supernatant by ELISA; details: for effect on the expression level of IL-6: curative condition (peptide 6 hours after LPS), 1 to 20 μM; for IL-6 expression compared with the S1 peptide: curative condition; for efficacy on IL-6 compared with the IRAK2 peptide (IRAK2-S1): 10 to 20 μM
Procedure: as §4, §5, §6

IL-1β [3] = assay: LPS-stimulated THP-1 monocytes, IL-1β in culture supernatant by ELISA; details: THP1, LPS 0.1 μg/ml 24 h, peptide 5 and 20 μM added at the same time as LPS
Procedure: as §4

[4] = curative condition (peptide 6 hours after LPS), 10 μM
[5] = curative condition (peptide 6 hours after LPS), 20 μM
[6] = preventive condition (peptide 6 hours before LPS), 10 μM
[7] = preventive condition (peptide 6 hours before LPS), 20 μM
[8] = simultaneous condition, LPS 0.1 μg/mL 24 h, peptide 10 and 20 μM
[9] = simultaneous condition, peptide 20 μM

Substance: Ac-S5-REL-S5-WWWGBRQA-NH2 (Ac-[S5]REL[S5]WWWG[Nle]RQA-NH2; staple 1-5; SMILES CCCC[C@H](NC(=O)CNC(=O)[C@H](Cc1c[nH]c2ccccc12)NC(=O)[C@H](Cc1c[nH]c2ccccc12)NC(=O)[C@H](Cc1c[nH]c2ccccc12)NC(=O)[C@]1(C)CCCC=CCCC[C@](C)(NC(C)=O)C(=O)N[C@@H](CCCNC(=N)N)C(=O)N[C@@H](CCC(=O)O)C(=O)N[C@@H](CC(C)C)C(=O)N1)C(=O)N[C@@H](CCCNC(=N)N)C(=O)N[C@@H](CCC(N)=O)C(=O)N[C@@H](C)C(N)=O) [IRAK2-S1]
- expression of CHOP, GRP94 and BIP (ER stress) ([1]; simultaneous treatment, peptide 1 to 20 μM, RT-qPCR): blocked in a dose-dependent manner
- production of IL-1β in supernatant (IL-1β [2]; ELISA): able to block
- expression of IL-1β RNA (IL-1β [2]; RT-qPCR): able to block
- effect on viability and morphology of the cells (THP-1 cells): no effect
- TNFα secreted after LPS stimulation (TNFα; THP1, LPS 0.1 μg/ml 6 h, peptide 5 and 20 μM added at the same time as LPS): reduced the expression of the 3 cytokines in a dose-dependent manner
- inhibition of TNFα secretion (TNFα; [4]): ≤ 30%
- inhibition of TNFα secretion (TNFα; [5]): ≤ 70%
- inhibition of TNFα expression (TNFα; [6]): No inhibition
- inhibition of TNFα secretion (TNFα; [7]): 15 to 20%
- inhibition of TNFα secretion (TNFα; [8]): significantly inhibit
- IL-6 secreted after LPS stimulation (IL-6; THP1, LPS 0.1 μg/ml 24 h, peptide 5 and 20 μM added at the same time as LPS): reduced the expression of the 3 cytokines in a dose-dependent manner
- effect on the expression level of IL-6 (IL-6): no effect
- inhibition of IL-6 expression (IL-6; [6]): No inhibition
- inhibition of IL-6 secretion (IL-6; [7]): 15 to 20%
- inhibition of IL-6 secretion (IL-6; [8]): significantly inhibit
- IL-1β secreted after LPS stimulation (IL-1β [3]): reduced the expression of the 3 cytokines in a dose-dependent manner

Substance: Ac-KSG-S5-REL-S5-WSWAQK-NH2 (Ac-KSG[S5]REL[S5]WSWAQK-NH2; staple 4-8; SMILES CC(=O)N[C@@H](CCCCN)C(=O)N[C@@H](CO)C(=O)NCC(=O)N[C@@]1(C)CCCC=CCCC[C@@](C)(C(=O)N[C@@H](Cc2c[nH]c3ccccc23)C(=O)N[C@@H](CO)C(=O)N[C@@H](Cc2c[nH]c3ccccc23)C(=O)N[C@@H](C)C(=O)N[C@@H](CCC(N)=O)C(=O)N[C@@H](CCCCN)C(N)=O)NC(=O)[C@H](CC(C)C)NC(=O)[C@H](CCC(=O)O)NC(=O)[C@H](CCCNC(=N)N)NC1=O) [IRAKM-S1]
- inhibition of TNFα secretion (TNFα; [4]): No inhibition
- inhibition of TNFα secretion (TNFα; [5]): 15 to 20%
- inhibition of TNFα secretion (TNFα; [7]): 95%
- inhibition of TNFα secretion (TNFα; [8]): significantly inhibit
- inhibition of TNFα expression (TNFα; [9]): up to 95%
- effect on the expression level of IL-6 (IL-6): no effect
- inhibition of IL-6 secretion (IL-6; [7]): 90%
- inhibition of IL-6 secretion (IL-6; [8]): significantly inhibit
- inhibition of IL-6 expression (IL-6; [9]): ≤ 90%

Substance: Ac-KSG-S5-REL-S5-WSWAQKNKTI-NH2 (Ac-KSG[S5]REL[S5]WSWAQKNKTI-NH2; staple 4-8; SMILES CC[C@H](C)[C@H](NC(=O)[C@@H](NC(=O)[C@H](CCCCN)NC(=O)[C@H](CC(N)=O)NC(=O)[C@H](CCCCN)NC(=O)[C@H](CCC(N)=O)NC(=O)[C@H](C)NC(=O)[C@H](Cc1c[nH]c2ccccc12)NC(=O)[C@H](CO)NC(=O)[C@H](Cc1c[nH]c2ccccc12)NC(=O)[C@]1(C)CCCC=CCCC[C@](C)(NC(=O)CNC(=O)[C@H](CO)NC(=O)[C@H](CCCCN)NC(C)=O)C(=O)N[C@@H](CCCNC(=N)N)C(=O)N[C@@H](CCC(=O)O)C(=O)N[C@@H](CC(C)C)C(=O)N1)[C@@H](C)O)C(N)=O) [IRAKM-JMV6649]
- increase of inhibition of TNFα expression compared with IRAKM-S1 (TNFα; curative condition, 20 μM): not significant
- greater inhibition of TNFα expression compared with IRAKM-S1 (TNFα; preventive condition, 10 μM): 20%
- additive inhibitory effect on TNFα expression compared with IRAKM-S1 (TNFα; simultaneous condition, 20 μM): no additive inhibitory effect
- IL-6 expression compared with the S1 peptide (IL-6; 20 μM): not significant
- additional inhibition of IL-6 expression compared with IRAKM-S1 (IL-6; preventive condition, 10 μM): 60%
- additional inhibition of IL-6 expression compared with IRAKM-S1 (IL-6; preventive condition, 20 μM): 80%
- decrease of IL-6 secretion compared with IRAKM-S1 (IL-6; simultaneous condition, 20 μM): more than 70%

Substance: Ac-ITF-S5-NLL-S5-YYGP-NH2 (Ac-ITF[S5]NLL[S5]YYGP-NH2; staple 4-8; SMILES CC[C@H](C)[C@H](NC(C)=O)C(=O)N[C@H](C(=O)N[C@@H](Cc1ccccc1)C(=O)N[C@@]1(C)CCCC=CCCC[C@@](C)(C(=O)N[C@@H](Cc2ccc(O)cc2)C(=O)N[C@@H](Cc2ccc(O)cc2)C(=O)NCC(=O)N2CCC[C@H]2C(N)=O)NC(=O)[C@H](CC(C)C)NC(=O)[C@H](CC(C)C)NC(=O)[C@H](CC(N)=O)NC1=O)[C@@H](C)O) [Mock-S, reference compound]
- expression of ER stress genes (specificity control) ([1]; peptide 20 μM): no effect
- inhibition of TNFα expression (TNFα; [9]): 15 to 20%
- inhibition of IL-6 expression (IL-6; [9]): 15 to 20%

Substance: Ac-VSI-S5-REL-S5-WWWGBRQATV-NH2 (Ac-VSI[S5]REL[S5]WWWG[Nle]RQATV-NH2; staple 4-8; SMILES CCCC[C@H](NC(=O)CNC(=O)[C@H](Cc1c[nH]c2ccccc12)NC(=O)[C@H](Cc1c[nH]c2ccccc12)NC(=O)[C@H](Cc1c[nH]c2ccccc12)NC(=O)[C@]1(C)CCCC=CCCC[C@](C)(NC(=O)[C@@H](NC(=O)[C@H](CO)NC(=O)[C@@H](NC(C)=O)C(C)C)[C@@H](C)CC)C(=O)N[C@@H](CCCNC(=N)N)C(=O)N[C@@H](CCC(=O)O)C(=O)N[C@@H](CC(C)C)C(=O)N1)C(=O)N[C@@H](CCCNC(=N)N)C(=O)N[C@@H](CCC(N)=O)C(=O)N[C@@H](C)C(=O)N[C@H](C(=O)N[C@H](C(N)=O)C(C)C)[C@@H](C)O) [IRAK2-JMV6650]
- additional inhibition of TNFα production compared with the S1 peptide (TNFα; curative condition, 10 to 20 μM): not significant
- efficacy on TNFα compared with the IRAK2 peptide (IRAK2-S1) (TNFα; preventive condition, 10 to 20 μM, data not shown): No more efficacy
- efficacy on TNFα compared with the IRAK2 peptide (IRAK2-S1) (TNFα; simultaneous condition, 10 to 20 μM): No more efficacy
- IL-6 expression compared with the S1 peptide (IL-6; 20 μM): acts as IRAK2-S1
- efficacy on IL-6 compared with the IRAK2 peptide (IRAK2-S1) (IL-6; preventive condition, data not shown): No more efficacy
- efficacy on IL-6 compared with the IRAK2 peptide (IRAK2-S1) (IL-6; simultaneous condition): No more efficacy
